{"source": "patent US20230374034A1", "about": "“NOVEL BICYCLIC COMPOUNDS” (PRISM BIOLAB CO., LTD., priority 2020, published 2023)"}
{"test_system": "NICD (Notch intracellular domain) CSL-bla reporter in HeLa cells", "assay": "Notch assay (CellSensor T-REx NICD CSL-bla HeLa beta-lactamase reporter; Method 1 / Method 2)", "format": "cell-based", "settings": "Homo sapiens, 10 μM compound, Method 1 (10× compound prepared in assay medium, added to plated cells), read-out: inhibiton (%) at 10 μM", "procedure,_shortened": "(§1)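 HeLa cells carrying doxycycline-inducible NICD and a CSL-driven beta-lactamase reporter, 10^3 cells/well, were treated with compound plus doxycycline for 16-20 h at 37 °C. CCF4-AM substrate was loaded for 4 h at room temperature; background-subtracted blue (460 nm)/green (530 nm) emission ratio taken per well.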", "units": {"inhibition at 10 µM": "%"}}
{"smiles": "CC(C)COC(=O)N1O[C@H](C(C)C)C(=O)N2C1CN(Cc1cccc3ccccc13)C(=O)[C@@H]2Cc1ccc(O)cc1", "note": "(stereo partly drawn) [Compound I-1, (3R,6S)-isobutyl 6-(4-hydroxybenzyl)-3-isopropyl-8-(naphthalen-1-ylmethyl)-4,7-dioxohexahydropyrazino[2,1-c][1,2,4]oxadiazine-1(6H)-carboxylate]", "inhibition at 10 µM": 55.9}
{"smiles": "CC(C)[C@H]1C(=O)N(CC2CCCCC2)CC2N(C(=O)OCc3cccc4ccccc34)O[C@H](CC(N)=O)C(=O)N21", "note": "(stereo partly drawn) [Compound I-18, (3R,6S)-naphthalen-1-ylmethyl 3-(2-amino-2-oxoethyl)-8-(cyclohexylmethyl)-6-isopropyl-4,7-dioxohexahydropyrazino[2,1-c][1,2,4]oxadiazine-1(6H)-carboxylate]", "inhibition at 10 µM": 54}
{"test_system": "NICD (Notch intracellular domain) CSL-bla reporter in HeLa cells", "assay": "Notch assay (CellSensor T-REx NICD CSL-bla HeLa beta-lactamase reporter; Method 1 / Method 2)", "format": "cell-based", "settings": "Homo sapiens, 10 μM compound, Method 2 (40 nL of 1000× compound added to plate with Echo), read-out: inhibiton (%) at 10 μM", "procedure,_shortened": "as §1", "units": {"inhibition at 10 µM": "%"}}
{"smiles": "CC(C)C[C@H]1ON(C(=O)OCc2ccccc2)[C@H]2CN(C3CCN(C)CC3)C(=O)[C@H](CCCCNCc3ccc4ccccc4n3)N2C1=O", "note": "[Compound I-145, benzyl (3R,6S,9aS)-3-isobutyl-8-(1-methylpiperidin-4-yl)-4,7-dioxo-6-(4-((quinolin-2-ylmethyl)amino)butyl) hexahydropyrazino[2,1-c][1,2,4]oxadiazine-1(6H)-carboxylate]", "inhibition at 10 µM": 89}
{"smiles": "CC(C)C[C@H]1ON(C(=O)OCCc2ccc(O)cc2)C2CN([C@@H](Cc3ccccc3)C(=O)NCCc3ccccc3)C(=O)[C@H](Cc3ccc(O)cc3)N2C1=O", "note": "(stereo partly drawn) [Compound I-93, 4-hydroxyphenethyl (3R,6S)-6-(4-hydroxybenzyl)-3-isobutyl-4,7-dioxo-8-((S)-1-oxo-1-(phenethylamino)-3-phenylpropan-2-yl)hexahydropyrazino[2,1-c][1,2,4]oxadiazine-1(6H)-carboxylate]", "inhibition at 10 µM": 76.3}
{"smiles": "C[C@H]1ON(C(=O)OCCc2ccccc2)C2CN([C@@H](Cc3ccccc3)C(=O)NCCC(N)=O)C(=O)[C@H](Cc3ccccc3)N2C1=O", "note": "(stereo partly drawn) [Compound I-85, phenethyl (3R,6S)-8-((S)-1-((3-amino-3-oxopropyl)amino)-1-oxo-3-phenylpropan-2-yl)-6-benzyl-3-methyl-4,7-dioxohexahydro-pyrazino[2,1-c] [1,2,4]oxadiazine-1(6H)-carboxylate]", "inhibition at 10 µM": 66.5}
{"smiles": "CC(C)C[C@H]1ON(CCCc2ccccc2)C2CN(C3CCN(C)CC3)C(=O)[C@H](CC3CCCCC3)N2C1=O", "note": "(stereo partly drawn) [Compound I-143, (3R,6S)-6-(cyclohexylmethyl)-3-isobutyl-8-(1-methylpiperidin-4-yl)-1-(3-phenylpropyl) tetrahydropyrazino [2,1-c][1,2,4]oxadiazine-4,7(3H,6H)-dione]", "inhibition at 10 µM": 105}
{"smiles": "CCCC[C@@H](C(=O)NCCC(C)C)N1CC2N(C(=O)OCCc3ccc(O)cc3)O[C@H](CC(C)C)C(=O)N2[C@@H](Cc2ccc(O)cc2)C1=O", "note": "(stereo partly drawn) [Compound I-97, 4-hydroxyphenethyl (3R,6S)-6-(4-hydroxybenzyl)-3-isobutyl-8-((S)-1-(isopentylamino)-1-oxohexan-2-yl)-4,7-dioxohexahydropyrazino[2,1-c][1,2,4]oxadiazine-1(6H)-carboxylate]", "inhibition at 10 µM": 57.3}
{"smiles": "O=C1[C@H](CO)N2C(=O)[C@@H](Cc3ccc(O)cc3)ON(C(=O)OCC3CCCCC3)C2CN1CCc1cccc2ccccc12", "note": "(stereo partly drawn) [Compound I-47, (3R,6S)-cyclohexylmethyl 3-(4-hydroxybenzyl)-6-(hydroxymethyl)-8-(2-(naphthalen-1-yl)ethyl)-4,7-dioxohexahydropyrazino[2,1-c][1,2,4]oxadiazine-1(6H)-carboxylate]", "inhibition at 10 µM": 71.4}
{"smiles": "CC(C)CCOC(=O)N1O[C@H](Cc2ccccc2)C(=O)N2C1CN([C@@H](Cc1ccccc1)C(=O)NCCc1ccccc1)C(=O)[C@@H]2Cc1ccc(O)cc1", "note": "(stereo partly drawn) [Compound I-105, isopentyl (3R,6S)-3-benzyl-6-(4-hydroxybenzyl)-4,7-dioxo-8-((S)-1-oxo-1-(phenethylamino)-3-phenylpropan-2-yl)hexahydropyrazino[2,1-c][1,2,4]oxadiazine-1(6H)-carboxylate]", "inhibition at 10 µM": 60.9}
{"smiles": "CC(C)CCCNC(=O)[C@H](Cc1ccc(O)cc1)N1CC2N(C(=O)OCCc3ccccc3)O[C@H](CC(C)C)C(=O)N2[C@@H](Cc2ccc(O)cc2)C1=O", "note": "(stereo partly drawn) [Compound I-99, phenethyl (3R,6S)-6-(4-hydroxybenzyl)-8-((S)-3-(4-hydroxyphenyl)-1-((4-methylpentyl)amino)-1-oxopropan-2-yl)-3-isobutyl-4,7-dioxohexahydropyrazino [2,1-c][1,2,4]oxadiazine-1(6H)-carboxylate]", "inhibition at 10 µM": 58}
{"smiles": "CCCCCOC(=O)N1O[C@H](CC(C)C)C(=O)N2C1CN([C@@H](Cc1ccc(O)cc1)C(=O)NCCCC(C)C)C(=O)[C@@H]2Cc1ccc(O)cc1", "note": "(stereo partly drawn) [Compound I-100, pentyl (3R,6S)-6-(4-hydroxybenzyl)-8-((S)-3-(4-hydroxyphenyl)-1-((4-methylpentyl)amino)-1-oxopropan-2-yl)-3-isobutyl-4,7-dioxohexahydropyrazino [2,1-c][1,2,4]oxadiazine-1(6H)-carboxylate]", "inhibition at 10 µM": 63.8}
{"smiles": "CC(C)CCNC(=O)[C@H](Cc1ccc(O)cc1)N1CC2N(C(=O)OCCc3ccc(O)cc3)O[C@H](CC(C)C)C(=O)N2[C@@H](Cc2ccc(O)cc2)C1=O", "note": "(stereo partly drawn) [Compound I-95, 4-hydroxyphenethyl (3R,6S)-6-(4-hydroxybenzyl)-8-((S)-3-(4-hydroxyphenyl)-1-(isopentylamino)-1-oxopropan-2-yl)-3-isobutyl-4,7-dioxohexahydropyrazino[2,1-c][1,2,4]oxadiazine-1(6H)-carboxylate]", "inhibition at 10 µM": 60.1}
{"smiles": "O=C(NCCO)[C@H](Cc1ccccc1)N1CC2N(C(=O)OCCc3ccc(O)cc3)O[C@H](Cc3ccccc3)C(=O)N2[C@@H](Cc2ccccc2)C1=O", "note": "(stereo partly drawn) [Compound I-80, 4-hydroxyphenethyl (3R,6S)-3,6-dibenzyl-8-(S)-1-(2-hydroxyethyl)amino)-1-oxo-3-phenylpropan-2-yl)-4,7-dioxohexahydropyrazino[2,1-c][1,2,4]oxadiazine-1(6H)-carboxylate]", "inhibition at 10 µM": 63}
{"smiles": "CC(C)C[C@@H](C(=O)NCCc1ccccc1)N1CC2N(C(=O)OCCc3ccc(O)cc3)O[C@H](Cc3ccccc3)C(=O)N2[C@@H](C)C1=O", "note": "(stereo partly drawn) [Compound I-121, 4-hydroxyphenethyl (3R,6S)-3-benzyl-6-methyl-8-((S)-4-methyl-1-oxo-1-(phenethylamino)pentan-2-yl)-4,7-dioxohexahydropyrazino [2,1-c][1,2,4]oxadiazine-1(6H)-carboxylate]", "inhibition at 10 µM": 63.3}
{"smiles": "CC(C)C[C@H]1ON(CCCC2CCN(C(=O)c3ccc(C(=O)c4ccccc4)cc3)CC2)C2CN(C3CCN(C)CC3)C(=O)[C@H](CC(C)C)N2C1=O", "note": "(stereo partly drawn) [Compound I-148, (3R,6S)-1-(3-(1-(4-benzoylbenzoyl)piperidin-4-yl)propyl)-3,6-diisobutyl-8-(1-methylpiperidin-4-yl)tetrahydropyrazino[2,1-c][1,2,4]oxadiazine-4,7(3H,6H)-dione]", "inhibition at 10 µM": 76.6}
{"smiles": "CC(C)NC(=O)N1O[C@H](CCCNC(=N)N)C(=O)N2C1CN(Cc1cccc3ccccc13)C(=O)[C@@H]2C", "note": "(stereo partly drawn) [Compound I-51, (3R,6S)-3-(3-guanidinopropyl)-N-isopropyl-6-methyl-8-(naphthalen-1-ylmethyl)-4,7-dioxohexahydropyrazino[2,1-c][1,2,4]oxadiazine-1(6H)-carboxamide]", "inhibition at 10 µM": 55.3}
